Several values for one entry are separate records, joined by “and”; a condition that tells them apart may be missing. Identical values can stand only once. Like-named read-outs stand apart in the source and are kept apart here.
Target: T1, HIV-1 protease (Human immunodeficiency virus type 1 group M subtype B, UniProt P04585)
T1 construct: The protease (or proteinase), consisting of only 99 amino acids, is among the smallest enzymes known
Assay: In vitro HIV protease inhibitory assay (HIV Protease FITC Assay)
Format: biochemical
Conditions: for inhibition at 0.123 µM / inhibition at 0.37 µM / inhibition at 1.1 µM / inhibition at 3.3 µM / inhibition at 10 µM / inhibition at 30 µM / inhibition at 1 µM / inhibition at 100 µM / inhibition at 0.41 µM / inhibition at 1.23 µM / inhibition at 3.7 µM / inhibition at 11 µM / inhibition at 33 µM: read-out: HIV-1 Protease % Inhib; for Ki: read-out: HIV-1 FITC Ki; for inhibition at 0.41 µM: HIV-1 Dose 0.410 uM; for inhibition at 1.23 µM: HIV-1 Dose 1.230 uM; for inhibition at 3.7 µM: HIV-1 Dose 3.700 uM; for inhibition at 11 µM: HIV-1 Dose 11.000 uM; for inhibition at 33 µM: HIV-1 Dose 33.000 uM
In short: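 Percent inhibition was read as fluorescence after avidin-bead capture and filtration separated FITC cleavage product from biotinylated substrate. Enzyme and substrate reacted 1 h, RT, dark, at pH 5.5 (0.1 M sodium acetate, 1.0 M NaCl, 0.05% NP-40).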

Compound | inhibition at 0.123 µM (HIV-1 Dose 0.123 uM) | inhibition at 0.37 µM (HIV-1 Dose 0.370 uM) | inhibition at 1.1 µM (HIV-1 Dose 1.100 uM) | inhibition at 3.3 µM (HIV-1 Dose 3.300 uM) | inhibition at 10 µM (HIV-1 Dose 10.000 uM) | inhibition at 30 µM (HIV-1 Dose 30.000 uM) | Ki | inhibition at 100 µM (HIV-1 Dose 100.000 uM) | other results
O=C1OC(CCc2ccccc2)(CCc2ccccc2)CC(O)=C1C(CCc1ccccc1)c1ccccc1 (stereo not shown) [Example 237, 2H-Pyran-2-one, 5,6-dihydro-4-hydroxy-6,6-di-(2-phenylethyl)-3-(1,3-diphenylpropyl)-] | < 10% | 10.2% | 32% | 60.2% | 80.9% | 78.2% | – | – | –
CCC(Cc1ccc(OC)cc1)c1cc(O)c(C(c2ccccc2)C2CC2)c(=O)o1 (stereo not drawn) [Example 163, 3-(α-cyclopropylbenzyl)-4-hydroxy-6-(α-ethyl-p-methoxyphenethyl)-2H-pyran-2-one] | < 10% | 30.8% | 65.6% | 88.7% | 101% | 98.4% | 0.172 µM | – | –
CCC(C1=C(O)CC2(CCCCCCC2)OC1=O)c1ccccc1 (stereo not shown) [Example 126, 4-Hydroxy-3-(1-phenylpropyl)-1-oxaspiro[5.7]tridec-3-en-2-one] | – | – | – | – | – | – | – | – | inhibition at 0.123 µM: < 10%; inhibition at 0.37 µM: < 10%; inhibition at 1.1 µM: 13.2%; inhibition at 3.3 µM: 42.9%; inhibition at 10 µM: 66.8%; inhibition at 30 µM: 81%
CCC(CC1CC(=O)N(Cc2ccccc2)C1)c1cc(O)c(C(c2ccccc2)C2CC2)c(=O)o1 (stereo not shown) [Example 142, 4-[2-[3-(Cyclopropylphenylmethyl)-4-hydroxy-2-oxo-2H-pyran-6-yl]butyl]-1-(phenylmethyl)-2-pyrrolidinone] | < 10% | < 10% | 26.9% | 64.3% | 88.7% | 104% | – | – | –
C=CC(C1=C(O)CC(CCc2ccccc2)(CC(C)C)OC1=O)c1ccccc1 (stereo not shown) [Example 233, 2H-Pyran-2-one, 5,6-dihydro-4-hydroxy-6-(2-methylpropyl)-6-(2-phenylethyl)-3-(1-phenyl-2-propenyl)-] | < 10% | 28.9% | 64.9% | 83.1% | 93.7% | 59.4% | 0.0248 µM | – | –
C=CC(C1=C(O)CC2(CCOCC2)OC1=O)c1ccccc1 (stereo not shown) [Example 121, 4-Hydroxy-3-(1-phenyl-allyl)-1,9-dioxa-spiro[5.5]undec-3-en-2-one] | < 10% | < 10% | < 10% | 10.8% | 40.2% | 68.5% | – | – | –
O=c1oc(CCCC2CCCCC2)cc(O)c1C(c1ccccc1)C1CC1 (stereo not shown) [Example 94, 6-(3-Cyclohexyl-propyl)-3-(cyclopropyl-phenyl-methyl)-4-hydroxy-pyran-2-one] | – | – | – | – | 25% | – | – | 52.4% | inhibition at 1 µM (HIV-1 Dose 1.000 uM): < 10%
CCC(CC)c1oc(=O)c(C(c2ccccc2)C2CC2)c(O)c1CCOCCOC (stereo not shown) [Example 110, 3-(Cyclopropyl-phenyl-methyl)-6-(1-ethyl-propyl)-4-hydroxy-5-(2-(2-methoxy-ethoxy)ethyl)-pyran-2-one] | – | – | – | – | – | – | – | 84.3% | inhibition at 0.41 µM: < 10%; inhibition at 1.23 µM: 16.1%; inhibition at 3.7 µM: 43.2%; inhibition at 11 µM: 71.2%; inhibition at 33 µM: 88.6%
C=CC(c1ccccc1)C1C(=O)CC(C)(c2ccccc2)OC1=O (stereo not shown) [Example 34, Dihydro-6-methyl-6-phenyl-3-(1-phenyl-2-propenyl)-2H-Pyran-2,4(3H)-dione] | – | – | – | – | 56.5% | – | 0.625 µM | 67.9% | inhibition at 1 µM (HIV-1 Dose 1.000 uM): < 10%
CCC(Cc1ccccc1)c1cc(O)c(C(c2cccc(NC(=O)NS(=O)(=O)c3ccccc3)c2)C2CC2)c(=O)o1 (stereo not drawn) [Example 216, 3-(α-Cyclopropyl-meta-[(phenylsulfonylaminocarbonyl)amino]benzyl)-6-(α-ethylphenethyl)-4-hydroxy-2H-pyran-2-one] | < 10% | 29.8% | 61.1% | 85.6% | 91.5% | 90.5% | 0.122 µM | – | –
CCCC(c1ccc(Br)cc1)c1c(O)cc(CCc2ccccc2)oc1=O (stereo not drawn) [Example 4, 4-hydroxy-6-phenethyl-3-(α-propyl-p-bromobenzyl)-2H-Pyran-2-one] | – | – | – | – | 15.8% | – | – | 51.2% | inhibition at 1 µM (HIV-1 Dose 1.000 uM): < 10%
Cc1cc(O)c(CC=Cc2ccccc2)c(=O)o1 [Example 122, 4-Hydroxy-6-methyl-3-(3-phenyl-prop-2-enyl)-2H-Pyran-2-one] | – | – | – | – | – | – | – | 26% | –
O=c1oc(CC(O)c2cccc(Cl)c2)cc(O)c1C(c1ccccc1)C1CC1 (stereo not drawn) [Example 150, 3-(α-cyclopropylbenzyl)-4-hydroxy-6-(β-hydroxy-m-chlorophenethyl)-2H-pyran-2-one] | < 10% | 13.3% | 25.4% | 54.1% | 75.2% | 91% | – | 113% | –
O=c1oc(CC2CCCC2)cc(O)c1C(c1ccccc1)C1CC1 (stereo not shown) [Example 143, 6-(Cyclopentylmethyl)-3-(cyclopropylphenylmethyl)-4-hydroxy-2H-pyran-2-one] | < 10% | < 10% | 25.1% | 57.9% | 83.1% | 93.8% | – | – | –
Dimethyl 3-[(4-hydroxy-2-oxo-6-phenyl-2H-1-pyran-3-yl)(4-nitrophenyl)methyl] - 1,3-propandioate [Example 28] | – | – | – | – | – | – | – | – | HIV-1 Protease % Inhib (HIV-1 Dose 1.000 uM): <10%; HIV-1 Protease % Inhib (HIV-1 Dose 10.000 uM): 15.07%; HIV-1 Protease % Inhib (HIV-1 Dose 100.000 uM): 76.68%
CCC(Cc1ccccn1)c1cc(O)c(C(c2ccccc2)C2CC2)c(=O)o1 (stereo not shown) [Example 63, 3-(Cyclopropyl-phenyl-methyl)-4-hydroxy-6-(1-pyridin-2-ylmethyl-propyl)-pyran-2-one] | – | – | – | – | – | – | 0.079 µM | 117% | inhibition at 0.41 µM: 68.5%; inhibition at 1.23 µM: 95.8%; inhibition at 3.7 µM: 101%; inhibition at 11 µM: 110%; inhibition at 33 µM: 112%
CCC(Cc1ccccc1)c1cc(O)c(C(c2cccc(NC(=O)CCn3ccc4ccccc43)c2)C2CC2)c(=O)o1 (stereo not drawn) [Example 230, 3-(α-Cyclopropyl-meta-(3-(1-indolyl)propanoylamino)benzyl)-6-(α-ethylphenethyl)-4-hydroxy-2H-pyran-2-one] | < 10% | 15.3% | 48.6% | 71.3% | 91.1% | 85.3% | – | – | –
O=c1oc(CC(O)c2ccc(F)cc2)cc(O)c1C(c1ccccc1)C1CC1 (stereo not drawn) [Example 148, 3-(α-cyclopropylbenzyl)-4-hydroxy-6-(β-hydroxy-p-fluorophenethyl)-2H-pyran-2-one] | < 10% | 22.4% | 52% | 80.3% | 91.9% | 89.7% | 0.161 µM | 130% | –
O=c1oc(CCCCc2ccccc2)cc(O)c1C(c1ccccc1)C1CC1 (stereo not shown) [Example 91, 3-(Cyclopropyl-phenyl-methyl)-4-hydroxy-6-(4-phenyl-butyl)-pyran-2-one] | – | – | – | – | 27.8% | – | – | 62% | inhibition at 1 µM (HIV-1 Dose 1.000 uM): < 10%
C=CC(C1=C(O)CC(CCC)(CCc2ccccc2)OC1=O)c1ccccc1 (stereo not shown) [Example 174, 5,6-Dihydro-4-hydroxy-6-(2-phenylethyl)-3-(1-phenyl-2-propenyl)-6-propyl-2H-pyran-2-one] | 23.5% | 52.8% | 81.8% | 102% | 110% | 106% | 0.016 µM | – | –
CCC(CCCN1CCOCC1)c1cc(O)c(C(c2ccccc2)C2CC2)c(=O)o1 (stereo not shown) [Example 73, 3-(Cyclopropyl-phenyl-methyl)-6-(1-ethyl-4-morpholin-4-yl-butyl)-4-hydroxy-pyran-2-one] | < 10% | < 10% | < 10% | < 10% | 28.9% | 61.4% | – | – | –
CC(C)C(CC1CCCOC1)c1cc(O)c(C(c2ccccc2)C2CC2)c(=O)o1 (stereo not shown) [Example 134, 3-(Cyclopropylphenylmethyl)-4-hydroxy-6-[2-methyl-1-[(tetrahydro-2H-pyran-3-yl)methyl]propyl]-2H-pyran-2-one] | 21.1% | 57.5% | 83.1% | 99.7% | 111% | 106% | 0.024 µM | – | –
CCC(CC1CCCCC1)c1cc(O)c(C(c2ccccc2)C2CC2)c(=O)o1 (stereo not shown) [Example 85, 6-(1-Cyclohexylmethyl-propyl)-3-(cyclopropyl-phenyl-methyl)-4-hydroxy-pyran-2-one] | – | – | – | – | 77% | – | – | 92.1% | inhibition at 1 µM (HIV-1 Dose 1.000 uM): 11.6%
O=c1oc(C(CC2CC2)CC2CC2)cc(O)c1C(c1ccccc1)C1CC1 (stereo not shown) [Example 81] | – | – | – | – | – | – | 0.031 µM | – | HIV-1 Protease % Inhib (HIV-1 Dose 1.000 uM): 41.76%; HIV-1 Protease % Inhib (HIV-1 Dose 10.000 uM): 76.98%; HIV-1 Protease % Inhib (HIV-1 Dose 100.000 uM): 83.48% and 83.5%; HIV-1 Protease % Inhib (dose not given): <10%
